In PMC9162272 (Journal of Cardiovascular Pharmacology, 2022):
Read-outs that look alike come from different tables or passages of the source.

Target: PDE-III (Homo sapiens, UniProt Q14432)
Assay: Phosphodiesterase inhibition, purified PDE-III isozyme
Format: biochemical
Settings: for PDE-IV Versus PDE-III, IC50 Ratio: selectivity of inhibition of PDE-III over PDE-IV
[1] = read-out: PDE-III IC50, PDE-III isolated from human platelets, 30°C, 30 minutes, [3H]-cAMP 0.1 µM and cAMP 0.1 µM, duplicates

Sequence of PDE-III (Q14432 whole entry): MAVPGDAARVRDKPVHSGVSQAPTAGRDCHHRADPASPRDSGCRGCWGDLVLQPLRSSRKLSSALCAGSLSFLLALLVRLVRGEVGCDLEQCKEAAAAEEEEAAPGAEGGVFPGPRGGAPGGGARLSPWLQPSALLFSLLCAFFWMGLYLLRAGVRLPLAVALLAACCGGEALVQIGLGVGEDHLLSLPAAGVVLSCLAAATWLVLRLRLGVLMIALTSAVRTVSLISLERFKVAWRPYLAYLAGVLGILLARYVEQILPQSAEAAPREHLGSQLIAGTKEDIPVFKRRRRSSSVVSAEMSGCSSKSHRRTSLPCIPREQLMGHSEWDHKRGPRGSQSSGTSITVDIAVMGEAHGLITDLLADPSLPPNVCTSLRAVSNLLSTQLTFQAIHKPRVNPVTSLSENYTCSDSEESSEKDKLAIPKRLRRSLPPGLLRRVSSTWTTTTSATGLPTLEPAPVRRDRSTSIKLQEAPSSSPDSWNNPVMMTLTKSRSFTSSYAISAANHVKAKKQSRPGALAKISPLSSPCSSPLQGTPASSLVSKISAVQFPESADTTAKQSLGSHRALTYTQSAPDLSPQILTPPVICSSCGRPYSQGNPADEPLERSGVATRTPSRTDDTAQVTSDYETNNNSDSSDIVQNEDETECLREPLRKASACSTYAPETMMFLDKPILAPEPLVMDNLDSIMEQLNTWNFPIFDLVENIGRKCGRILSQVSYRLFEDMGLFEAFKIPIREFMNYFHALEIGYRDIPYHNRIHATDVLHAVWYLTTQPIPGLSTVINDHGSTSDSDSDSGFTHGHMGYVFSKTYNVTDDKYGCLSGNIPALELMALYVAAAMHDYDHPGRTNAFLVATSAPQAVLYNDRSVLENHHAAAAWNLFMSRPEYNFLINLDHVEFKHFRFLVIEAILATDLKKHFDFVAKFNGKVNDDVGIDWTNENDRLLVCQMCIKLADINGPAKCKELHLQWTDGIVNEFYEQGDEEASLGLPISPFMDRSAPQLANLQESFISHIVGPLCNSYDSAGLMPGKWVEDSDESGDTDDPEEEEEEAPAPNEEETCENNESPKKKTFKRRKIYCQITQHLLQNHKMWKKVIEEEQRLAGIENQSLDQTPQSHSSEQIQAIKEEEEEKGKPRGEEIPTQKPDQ

SMILES	IC50 [nM]	PDE-IV Versus PDE-III, IC50 Ratio	IC50 [1] [nM]
C[C@@H]1CC(=O)NN=C1c1ccc(NN=C(C#N)C#N)cc1 [Levosimendan, levosimendan, reference compound]	2.1	7619	
C[C@@H]1CC(=O)NN=C1c1ccc(N)cc1 [OR-1855]		100	5000
CC(=O)Nc1ccc(C2=NNC(=O)C[C@H]2C)cc1 [OR-1896]		3043	94
